Assay [1] deals with T1, human PNPO F48A/E50L/R258L variant (holo-enzyme) (Homo sapiens, UniProt Q9NVS9, E50L/F48A/R258L).
T1 construct: a main form corresponding to the entire protein; made in house; host or cells: E. coli BL21(DE3)
T1 sequence (Q9NVS9 1-261 F48A/E50L/R258L): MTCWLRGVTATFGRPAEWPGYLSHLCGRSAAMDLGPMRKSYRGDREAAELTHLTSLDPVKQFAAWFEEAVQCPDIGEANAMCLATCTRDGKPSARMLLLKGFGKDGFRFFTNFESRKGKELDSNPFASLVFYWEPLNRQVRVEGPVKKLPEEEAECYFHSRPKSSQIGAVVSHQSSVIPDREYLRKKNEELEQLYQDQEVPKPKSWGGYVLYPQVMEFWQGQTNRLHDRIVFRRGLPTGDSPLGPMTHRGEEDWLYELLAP
The assay can be described thus: PLP binding by FMN fluorescence changes, holo triple variant. Particulars: 100 nM enzyme, read-out: PLP binding KD^FLUO. The text has this: (§1) PLP binding to PNPO can be detected and quantitatively measured using differential scanning fluorimetry (DSF) and also by measuring FMN fluorescence changes. We had previously attributed DSF changes to PLP binding at the active site, while FMN fluorescence changes were attributed to PLP binding at the allosteric site (Barile et al., [2019], [2020]). Previous experiments carried out with the PNPO R161C variant, affecting a residue that is essential for substrate binding and catalysis (and therefore also for PLP binding at the active site), confirms that DSF measurements only report PLP binding at the active site (Barile et al., [2021]; Table 1). […] We expected to observe no FMN fluorescence changes upon titration of the variants with PLP. However, this was not the case, and the dissociation constant values obtained by observing the FMN fluorescence emission were only up to threefold larger in the variants with respect to wild type PNPO (Figure 3). […] To check the second possibility, we measured intrinsic fluorescence changes of wild type and variant apo‐forms (i.e., without FMN) upon PLP titration. […]
Analyses of PLP binding, based on FMN fluorescence increase observed upon binding of PLP to PNPO, were performed as described in Barile et al. ([2020]). […] Emission spectra were recorded from […], with excitation and emission slits set at 3 and 5 nm, respectively. […]

The target of assay [2] is T2, human PNPO F48A/E50L/R258L variant (Homo sapiens, UniProt Q9NVS9, E50L/F48A/R258L).
T2 construct: a main form corresponding to the entire protein; made in house; host or cells: E. coli BL21(DE3)
T2 sequence (Q9NVS9 1-261 F48A/E50L/R258L): T1 sequence (Q9NVS9 1-261 F48A/E50L/R258L)
Nature of the assay: PLP binding by DSF, triple variant. Conditions: 50 mM Na-HEPES pH 7.6, 2 μM enzyme.
Text: as §1
FIGURE 2 DSF measurements with F48A (a), F48A/E50L/R258L (b), F48A/E50L/H248N/R258L (c), and 1‐31del PNPO variants in the presence of different PLP concentrations. Upper panels: Fluorescence change is expressed as fractional variation as a function of temperature. […]
On the technique in general: DSF heats the sample and reads unfolding from a dye or from intrinsic fluorescence.

Assay [3] addresses T2, human PNPO F48A/E50L/R258L variant. Nature of the assay: PLP inhibition kinetics of PNP oxidation, triple variant. Type of assay: biochemical. Particulars: Na-HEPES pH 7.6, 2 μM enzyme, PLP 0–16 μM. How it is done: This is a general inhibition mechanism that takes into account the possibility of PLP binding to both the active and allosteric sites. PLP binding at the active site gives a complete, competitive inhibition, whereas PLP binding at the allosteric site yields a substrate‐enzyme‐PLP ternary complex that is still catalytically active, although k CAT is reduced by a coefficient whose value is around 0.15. A thorough inhibition kinetic characterization was carried out with the wild type, F48A, F48A/E50L/R258L, and F48A/E50L/H248N/R258L PNPO forms, so as to evaluate the effect of the variations on the allosteric properties of the enzyme. The initial velocity of PNP conversion into PLP was measured in Na‐HEPES buffer (in which PLP is allowed to accumulate) by varying substrate concentration at different, fixed exogenous PLP concentrations, using 2 μM enzyme. A series of saturation curves were obtained that were used to fit the Michaelis–Menten equation (Figure 5), acquiring apparent V MAX and K M values as a function of PLP concentration. […]
FIGURE 5 Characterization of PLP inhibition. Upper panels: The initial velocity of the reaction was measured with 2 μM wild type (a), and the F48A (b), F48A/E50L/R258L (c), and F48A/E50L/H248N/R258L (d) PNPO variants, varying PNP concentration while keeping exogenous PLP fixed at different concentrations (0, 0.25, 0.5, 1, 2, 4, 8, and 16 μM). […]

Assay [4] has as its target human PNPO wild type (holo-enzyme). On the set-up: method as in Barile et al. ([2020]). Particulars: FMN fluorescence changes, ref Barile et al. ([2020]), read-out: PLP binding KD^FLUO; cited from earlier work.

Molecules are shown by their SMILES. “And” between values parts separate entries of the source, which are not always exact repeats. Identical values can stand only once.

We go through 1 compound from publication PMC10804683, “Identification of the pyridoxal 5′‐phosphate allosteric site in human pyridox(am)ine 5′‐phosphate oxidase” (Protein Science : A Publication of the Protein Society, 2024).

As usually defined, the Kd is the constant that tells how readily two partners part at equilibrium. Turning to `Cc1ncc(COP(=O)(O)O)c(C=O)c1O` [PLP, pyridoxal 5′‐phosphate], the Kd in assay [1] is 1.38 ± 0.08 µM; in assay [2] it was 6.28 µM and 6.3 µM; in assay [4], 0.95 ± 0.01 µM. Also, in assay [3], the “type of inhibition of PNP oxidation by PLP” value is “pure competitive inhibition”.
